# Columns and labels:
# [1] = test system: experimental autoimmune encephalomyelitis (EAE); assay: EAE (multiple sclerosis model) neural symptom evaluation after intraspinal administration; assay type: in vivo, Lewis rats; details: for clinical score (EAE grade): Day 13 after antigen inoculation
# [2] = test system: cerebrospinal tissue; assay: DNA array analysis of cerebrospinal tissue of EAE model animals; assay type: in vivo, Lewis rats; details: Day 14, intrathecal continuous administration 6 µg/day immediately after inoculation of antigen
# [3] = test system: K562; assay: DNA chip gene expression analysis, cell viability-related genes (Example 3); assay type: cell-based, human; details: 42°C 20 minutes then 37°C 30 minutes, HA4 10 ng/ml
# Procedure: First, the K562 was incubated in Groups 1 and 2 in the […] described above. The both groups were incubated at 42°C for 20 minutes followed by 37°C for 30 minutes. The medium of Group 2 was supplemented with HA4 (10 ng/ml).
# (§1) After the incubation, the medium was removed by centrifugation at 1000 rpm. The obtained cells were stored in a deep freezer at -60°C. From the cells thus stored, RNA was extracted according to a standard method. The extracted RNA was subjected to the DNA chip to analyze gene expressions. The DNA chip gene expression analysis was subtracted to DNA CHIP Research Inc. Specifically, the trade name: AceGene Human Oligo Chip 30K 1 Chip Version manufactured by DNACHIP Research Inc. was employed.
# [4] = test system: K562; assay: DNA chip gene expression analysis, cytokine- and chemokine-associated genes (Example 4); assay type: cell-based, human; details: 42°C 20 minutes then 37°C 30 minutes, HA4 10 ng/ml
# Procedure: Experimental method: First, the K562 was incubated in Groups 1 and 2 in the RPMI medium described above. The both groups were incubated at 42°C for 20 minutes followed by 37°C for 30 minutes. The medium of Group 2 was supplemented with HA4 (10 ng/ml).
# as §1, with “analyze the” for “analyze”, “expression.” for “expressions.”, “DNA CHIP” for “DNACHIP”
# [5] = test system: K562; assay: Cell viability by Rhodamine 123 staining after heat treatment; assay type: cell-based, human; details: 20 minutes at 43°C (heat treatment) followed by 60 minutes at 37°C, HA4 100 ng/ml
# Procedure: In this example, effect of the inventive pharmaceutical agent on cell viability was measured using Rhodamine 123. […] Accordingly, the degree of the staining with Rhodamine 123 serves as an index of the mitochondrial activity, thus the index of the cellular activity (see, non-patent reference 2).
# In this example, a K562 (referred to as human erythroleukemia cell or human erythroblastoid leukemia cell) was used. The K562 was purchased from RIKEN, Japan.
# In this example relating to preparation of test substance, HA4 was prepared at 100 ng/ml. Specifically, HA4 was prepared by the method of Tawada et al. (Tawada A, Masa T, Oonuki Y, Watanabe A, Matsuzaki Y, Asari A. Large-scale preparation, purification and characterization of hyaluronan oligosaccharides from 4-mers to 52-mers. Glycobiology, 2002; 12(7):421-6) and the concentration was adjusted using a physiological saline.
# First, the K562 was incubated under the condition described below. The culture medium for the K562 was an RPMI-1640 medium. In this example, the K562 was incubated in Groups 1 to 3 shown below. Each group was cultured under the condition described below. […]
# The K562 after washing was inoculated at 1×10^4 cells/ml in a 96-well plate and a photograph was taken using a fluorescent microscope (Nikon) . The image was sent to anAdobe Photoshop (Adobe Systems) where the fluorescent intensity of a cell was measured.
# [6] = Cytotoxicity (general statement); details: at a dose exhibiting a biological activity of a pharmaceutical
# [7] = test system: U937 cell; assay: Cytokine production under LPS stimulation, cytokine antibody array; assay type: cell-based, human; details: LPS 100 ng/ml, HA4 100 ng/ml, 24 hours
# Procedure: (§2) • 2. Cell: U937 cell (human monocyte line), purchased from Dainipon Sumitomo Seiyaku. • 3. Culture medium: RPMI medium (containing 10% FBS). • 4. LPS E.coli, 0111B4, Chemicon.
# (§3) An U937 cell was disseminated in a 2 ml aliquot in a 6-well microplate at 5×10^5 cell/ml, supplemented with an LPS at a final concentration of 100 or 1000 ng/ml, and then incubated for 24 hours with 5% CO2 at 37°C in the presence or absence of HA4 (100 ng/ml) . The culture supernatant was centrifuged at 3000 rpm for 5 minutes to obtain a test substance. A 1 ml aliquot of the recovered supernatant was subjected to Human Cytokine Antibody array (Raybio) using an ELISA (ENDOGEN) to detect the production of various cytokines.
# A 2 ml aliquot of a blocking buffer was added to a membrane blotted with an antibody, which was then shaken for 30 minutes. The blocking buffer was removed, and a 1 ml aliquot of the culture supernatant was added and shaken at room temperature for 2 hours, washed 5 times, and then admixed with a primary antibody solution. After agitating at room temperature for 1.5 hours followed by washing 5 times, a secondary antibody solution was added and agitated overnight at 4°C. After washing 5 times, a chemiluminescence was allowed to develop and photographed by a Polaroid. The photograph was scanned to obtain its digital data which were subjected to an Image J to measure the luminescent intensity. The ratio based on the luminescent intensity of an internal standard placed in 6 positions in the membrane was calculated. In addition, a relative level (%) based on the expression level in a non-treatment group (NT) being 100 was calculated.
# [8] = test system: U937 cell; assay: IL-6 production under LPS stimulation, ELISA; assay type: cell-based, human; details: LPS 100 ng/ml, HA4 100 ng/ml, 24 hours
# Procedure: as §2, §3
# To a microplate, 50 µl of a biotinylated antibody solution and 50 µl of the culture supernatant were added, and allowed to stand at room temperature for 2 hours. After washing with a washing buffer three times, 100 µl of a streptoavidin-HRP solution was added, allowed to stand at room temperature for 30 minutes, and washed with the washing buffer three times. A TMB was added, allowed to stand for at room temperature 30 minutes, and then a quencher was added to stop the reaction and the absorbance at 450 nm was measured (reference: 562 nm). The IL-6 concentration (pg/ml) was calculated based on the standard solutions measured in parallel.
# [9] = intraspinal continuous administration immediately after inoculation, 6 µg/day, 22 Days
# [10] = intraspinal single administration after onset of disease, 60 µg
substance,measurement,setting,value
tetrasaccharide hyaluronan [HA4],clinical score (EAE grade),"[1]; intraspinal continuous administration from onset of disease, 6 µg/day, 11 Days",1.5 ± 1.0
same,clinical score (EAE grade),[1]; [9],0.2 ± 0.41
same,clinical score (EAE grade),[1]; [10],1.8 ± 0.5
same,cases developing the disease,[1]; [9],1/6
same,diseased period,[1]; [10],5.0 ± 1.5 days
same,Expression level ratio (HA/physiological saline),[2]; Decoy TRAIL receptor without death domain,2.0
same,Expression level ratio (HA/physiological saline),[2]; Fibroblast growth factor receptor substrate 2,2.3
same,Expression level ratio (HA/physiological saline),[2]; Transthyretin,0.38
same,HAA+/- ratio,[3]; gene Caspase 2,0.27
same,HAA+/- ratio,[3]; gene DNAJ2,0.34
same,HAA+/- ratio,[3]; gene Granzyme H,0.38
same,HAA+/- ratio,[3]; gene STK17b (DARK2),0.09
same,HAA+/- ratio,[3]; gene TAF9L,0.43
same,HAA+/- ratio,[3]; gene dnaj (hsp40) homolog,2.62
same,HAA+/- ratio,[3]; gene pawr (Par-4),0.45
same,HA4(+)/HA4(-) ratio,[4]; gene CCL28,0.32
same,HA4(+)/HA4(-) ratio,[4]; gene IFN-γ,0.11
same,HA4(+)/HA4(-) ratio,[4]; gene IFN-ω1,0.5
same,HA4(+)/HA4(-) ratio,[4]; gene IL-1β,0.36
same,HA4(+)/HA4(-) ratio,[4]; gene IL-5,0.28
same,HA4(+)/HA4(-) ratio,[4]; gene IL-17b,0.31
same,HA4(+)/HA4(-) ratio,[4]; gene IL-18RAP,0.32
same,HA4(+)/HA4(-) ratio,[4]; gene Mig(CXCL9),0.11
same,Rhodamine 123 staining performance (fluorescent intensity),[5],inhibited such a reduction
same,cytotoxicity,[6],almost or completely no cytotoxicity
same,production of IL-1α,[7],reduction
same,production of IL-1β,[7],reduction
same,production of IL-6,[7],reduction
same,production of TGF-β,[7],reduction
same,production of TNF-α,[7],reduction
same,production of TNF-β,[7],reduction
same,production of IL-6,[8],reduction
